This experiment relates to Plutella xylostella. The experiment in a line: whole plant or invertebrate. The class given is in vivo. The conditions noted are these: foliar, cabbage leaf dip, second instar larvae, dead and moribund combined, 72 h after release. As for the experimental part:
Test Solutions were Prepared According to the Procedure Described Herein Below (500 PPM):
• 1. Eppendorf Vortex mixer (ThermoMixer C) and 1.5 mL Eppendorf tubes • 2. Zirconia (Zirconium-Yttrium) beads having diameter of 0.8 to 1.0 mm • 3. Microscope • 4. Beaker 100 mL • 5. Micro-pipette Reagents: • 1. Surfactant Solution • 2. De-mineralized (DM) Water • 1. Weigh 10 mg of the compound of the present invention to be tested in an Eppendorf Tube. • 2. Add 200 mg of the Surfactant Solution into the tube. • 3. Add 600 mg of Zirconia beads into the above mixture. • 4. Fix the tube in Eppendorf Vortex mixer and start vortexing at 2000 rpm. • 5. Mix on Vortex mixer for 30 minutes. After 30 minutes, observe the sample over a microscope at 400× resolution. • 6. If the Maximum particle size is more than 5 μm or average particle size is more than 2 μm or the particle size distribution is uneven, continue vortexing for another 30 minutes and again check the particle size using the microscope. Continue till the average particle size is below 2 microns. • 7. When the required particle size is achieved, add 1.0 mL DM water into the tube, close the cap, shake the tube thoroughly and transfer the contents, along with the beads, into a beaker. • 8. To rinse the tube, add another 1.0 mL of DM water into the tube, close the cap, shake well and transfer this into the same beaker. • 9. Repeat Step no. 8 one more time so that the tube is rinsed well and the compound of the present invention to be tested is transferred to the beaker. • 10. Add 16.8 mL of DM water into the beaker and stir well. • 11. The homogeneous dispersion can then be decanted into a glass vial, immediately, to separate the Zirconia beads. • 12. Immediately use this sample for biological testing. • 13. Further dilutions can be prepared by taking appropriate quantity of the aliquot of Step 10, immediately after stirring, and diluting as per requirement. The sample solution must be well mixed just before biological testing.
Leaf dip method was used for screening, wherein the required quantity of the compounds were weighed and dissolved in the test solution into the tube and vortex at 2000 rpm with Zirconia beads for 90 min for proper mixing, then mixed with 0.01% Triton-X solution to get the desired test concentration. Cabbage leaves were dipped in the solution for 10 seconds, shade dried for 20 min and then transferred to bioassay trays. Single second instar larva was released into each cell and the tray was covered with lid. The bio-assay trays were kept under laboratory conditions at a temperature of 25° C. and relative humidity of 70%. Observations on dead, moribund and live larvae were recorded at 72 h after the release. Percent mortality was calculated by combining dead and moribund larvae. The following compound num.
As for `C#CCNC(=O)c1c(NC(=O)c2cc(OCC(F)(F)F)nn2-c2ncccc2Cl)c(C)cc2ccnn12` [Compound 48, 6-(1-(3-chloropyridin-2-yl)-3-(2,2,2-trifluoroethoxy)-1H-pyrazole-5-carboxamido)-5-methyl-N-(prop-2-yn-1-yl)pyrazolo[1,5-a]pyridine-7-carboxamide], the mortality at 300 ppm was greater than 70%.

With `COc1cc(C(=O)Nc2c(C)cc3ccnn3c2C(=O)N2CC(F)(F)C2)n(-c2ncccc2Cl)n1` [Compound 39, 1-(3-chloropyridin-2-yl)-N-(7-(3,3-difluoroazetidine-1-carbonyl)-5-methylpyrazolo[1,5-a]pyridin-6-yl)-3-methoxy-1H-pyrazole-5-carboxamide], the mortality at 300 ppm was greater than 70%.

As to `Cc1cc2ccnn2c(C(=O)NC2CS(=O)(=O)C2)c1NC(=O)c1cc(Br)nn1-c1ncccc1Cl` [Compound 208, 6-(3-bromo-1-(3-chloropyridin-2-yl)-1H-pyrazole-5-carboxamido)-N-(1,1-dioxidothietan-3-yl)-5-methylpyrazolo[1,5-a]pyridine-7-carboxamide], the mortality at 300 ppm is greater than 70%.

Regarding `COCCNC(=O)c1c(NC(=O)c2cc(C(F)(F)F)nn2-c2ncccc2Cl)c(C)cc2ccnn12` [Compound 118, 6-(1-(3-chloropyridin-2-yl)-3-(trifluoromethyl)-1H-pyrazole-5-carboxamido)-N-(2-methoxyethyl)-5-methylpyrazolo[1,5-a]pyridine-7-carboxamide], the mortality at 300 ppm was greater than 70%.

Turning to `CCC(COC)NC(=O)c1c(NC(=O)c2cc(OC)nn2-c2ncccc2Cl)c(C)cc2ccnn12` (centres unmarked) [Compound 205, 6-(1-(3-chloropyridin-2-yl)-3-methoxy-1H-pyrazole-5-carboxamido)-N-(1-methoxybutan-2-yl)-5-methylpyrazolo[1,5-a]pyridine-7-carboxamide], the mortality at 300 ppm was greater than 70%.

For `CNC(=O)c1c(NC(=O)c2cc(C(F)(F)F)nn2-c2ncccc2Cl)c(Br)cc2ccnn12` [Compound 104, 5-bromo-6-(1-(3-chloropyridin-2-yl)-3-(trifluoromethyl)-1H-pyrazole-5-carboxamido)-N-methylpyrazolo[1,5-a]pyridine-7-carboxamide], the mortality at 300 ppm was greater than 70%.

In the case of `COc1cc(C(=O)Nc2c(C)cc3ccnn3c2C(=O)NOC(C)C)n(-c2ncccc2Cl)n1` [Compound 113, 6-(1-(3-chloropyridin-2-yl)-3-methoxy-1H-pyrazole-5-carboxamido)-N-isopropoxy-5-methylpyrazolo[1,5-a]pyridine-7-carboxamide], the mortality at 300 ppm is greater than 70%.

As for `CONC(=O)c1c(NC(=O)c2cc(Br)nn2-c2ncccc2Cl)ccc2ccnn12` [Compound 163, 6-(3-bromo-1-(3-chloropyridin-2-yl)-1H-pyrazole-5-carboxamido)-N-methoxypyrazolo[1,5-a]pyridine-7-carboxamide], the mortality at 300 ppm was greater than 70%.

As to `Cc1cc2ccnn2c(C(=O)NCC2CC2)c1NC(=O)c1cc(Oc2cc(C(F)(F)F)nn2C)nn1-c1ncccc1Cl` [Compound 80, 6-(1-(3-chloropyridin-2-yl)-3-((1-methyl-3-(trifluoromethyl)-1H-pyrazol-5-yl)oxy)-1H-pyrazole-5-carboxamido)-N-(cyclopropylmethyl)-5-methylpyrazolo[1,5-a]pyridine-7-carboxamide], the mortality at 300 ppm was greater than 70%.

For the compound `COc1cc(C(=O)Nc2c(C)cc3ccnn3c2C(N)=O)n(-c2ncccc2Cl)n1` [Compound 111, 6-(1-(3-chloropyridin-2-yl)-3-methoxy-1H-pyrazole-5-carboxamido)-5-methylpyrazolo[1,5-a]pyridine-7-carboxamide], the mortality at 300 ppm is greater than 70%.

For the compound `O=C(Nc1c(Br)cc2ccnn2c1C(=O)NC1CONC1=O)c1cc(C(F)(F)F)nn1-c1ncccc1Cl` (centres unmarked) [Compound 129, 5-bromo-6-(1-(3-chloropyridin-2-yl)-3-(trifluoromethyl)-1H-pyrazole-5-carboxamido)-N-(3-oxoisoxazolidin-4-yl)pyrazolo[1,5-a]pyridine-7-carboxamide], the mortality at 300 ppm was greater than 70%.

(Values after US12024510B2, “Pyrazolopyridine-diamides, their use as insecticide and processes for preparing the same” (PI INDUSTRIES LTD., priority 2017, dated 2024).)
